Source: patent publication US10479792B2, “Compounds” (GlaxoSmithKline Intellectual Property Development Limited, priority 2015, dated 2019)

Tests used:
[1] = system: Leishmania donovani; assay: Leishmania donovani intracellular assay (Assay 5); assay type: cell-based; conditions: THP-1, 96 h, eGFP amastigotes in THP-1 cells, 96 h incubation, read-out: pEC50 value against Leishmania donovani (converted)
Description: Assay 5. Leishmania donovani Intracellular Assay
Compounds were dispensed into black 384-well assay plates (Greiner) by acoustic dispensing (LabCyte ECHO). For potency determinations, eleven-point, one in three dilution curves were generated, with a top concentration of 50 μM. THP-1 human monocytes cells were dispensed in T225 tissue culture flasks and differentiated using 30 nM of PMA, after 24 hours they were infected overnight using Leishmania donovani expressing Green Fluorescent Protein (eGFP) amastigotes in the same T225 tissue culture flasks at a multiplicity of infection of 10. Next, any remaining free amastigotes were washed away with PBS and the infected THP-1 cells were harvested by trypsinisation. The infected cells were then plated into 384-well plates containing the compounds to be tested, at 3000 cells per well in RPMI media with 2% FBS and 25 mM Sodium bicarbonate. After 96 h incubation at 37° C. in presence of 5% CO2, the plates were fixed with 4% formaldehyde for 30 minutes, washed with PBS and stained with 0.1 mg/mL of DAPI for 30 minutes and washed again with PBS. The plates were imaged on a Perkin Elmer Opera high-content imaging system using a 20× air objective with two expositions, one for DAPI stain and other for eGFP. Images were analysed using the Acapella building blocks system (Perkin Elmer). The image analysis algorithm first identified the THP-1 nuclei followed by demarcation of the cytoplasm and identification of intracellular amastigotes. This algorithm reported mean number of parasites per THP-1 cell, the percentage of infected THP-1 cells and the total number of THP-1 cells.

[2] = system: Leishmania donovani; assay: Intramacrophage Leishmania donovani assay (Assay 1), average number of amastigotes per cell (potency readout); assay type: cell-based; conditions: THP-1, 96 h, amastigotes in PMA-differentiated THP-1 macrophages, 96 h incubation, read-out: pEC50 value against Leishmania donovani (converted)
Description: Assay 1. Intramacrophage Leishmania donovani Assay
The intramacrophage Leishmania assay was performed using a modified version of the method described in De Rycker et al. (Antimicrob Agents Chemother. 2013 July; 57(7):2913-22. Comparison of a high-throughput high-content intracellular Leishmania donovani assay with an axenic amastigote assay. De Rycker M, Hallyburton I, Thomas J, Campbell L, Wyllie S, Joshi D, Cameron S, Gilbert I H, Wyatt P G, Frearson J A, Fairlamb A H, Gray D W.). Procedure: 350 nl of compound was pre-dispensed into 384 well sterile intermediary plates. For single point screening, amphotericin B was added to all wells of column 24 as a positive control (final concentration 2 μM) and DMSO to column 23. For potency determinations, ten-point, one in three dilution curves were created with the highest concentration being 50 μM and on each plate a control curve of amphotericin B was included. Controls were as follows: columns 11 and 12: DMSO, columns 23 and 24: amphotericin B (final concentration 2 μM). To the intermediary plates, 35 μl of THP-1 media was added and plates were shaken for >5 min to ensure complete mixing. THP-1 cells (8,000 per well, 50 μl) were plated into black clear-bottom 384 well plates (Corning) in presence of 20 nM PMA. After 20 min at RT, the plates were incubated at 37° C. under 5% CO2 in a humidified incubator for 75 h. The cells were then washed with […] sterile phosphate buffered saline (PBS) supplemented with 1 mM CaCl2, 0.5 mM MgCl2, 0.1% (w/v) bovine serum albumin (PBS-A) and amastigotes were added to all wells at a multiplicity of infection of 5 (40,000 amastigotes per well). After 40 min at RT, plates were returned to the incubator. Amastigotes were incubated in the presence of THP-1 macrophages for 16 h. Any remaining extracellular amastigotes were subsequently removed with an overflow wash of 1 mL PBS-A per well (wash buffer is being aspirated from the top of the well as it is being dispensed) followed by addition of 25 μl of the compound pre-dilutions using a Fluidx Ipette-pro pipetting station. The final dilution of each compound was 200-fold. Plates were incubated for 96 h and then washed (250 μl PBS-A) and fixed (4% (v/v) formaldehyde-PBS, 30 min, RT). After fixation, the wells were washed with 250 μl PBS, stained (10 μg/mL DAPI, 0.4 μg mL-1 HCS Cellmask Deep Red in PBS+0.1% (v/v) Triton X-100, 30 min, RT) and washed with 250 μl PBS. Finally, PBS+0.05% (v/v) thimerosal was added to the wells, the plates were sealed and imaged on a high-content microscope (GE IN Cell 2000) using a 10× objective. Image analysis was carried out with GE IN Cell Analyzer 1000 Workstation using the “Multi Target Analysis” module. Settings for segmentation were as follows: nuclei: minimum area: 142.384 μm2, sensitivity: 81, method: top-hat; cells: characteristic area: 2500 μm2, sensitivity: 60, method: multiscale top-hat; organelles (amastigotes): granule size 1-3, 3 scales, sensitivity: 90, detection in entire cell. For each well, i) THP-1 cell count (cytotoxicity readout) and ii) average number of amastigotes per cell (potency readout) were calculated, both in terms of pEC50 values.

Compound	EC50 [2] [µM]	EC50 [1] [µM]
CC(C)c1cnc2nc(-c3cc(NC(=O)N4CCCC4)ccc3F)ccn12 [Example 18, N-(4-fluoro-3-(3-isopropylimidazo[1,2-a]pyrimidin-7-yl)phenyl)pyrrolidine-1-carboxamide]	0.251 to 10	0.126 to 10
O=C(Nc1ccc(F)c(-c2ccn3c(CN4CCOCC4)cnc3n2)c1)N1CCCC1 [Example 20, N-(4-fluoro-3-(3-(morpholinomethyl)imidazo[1,2-a]pyrimidin-7-yl)phenyl)pyrrolidine-1-carboxamide]	12.6 to 20	0.126 to 10
O=C(Nc1ccc(F)c(-c2ccn3c(CC4CCCO4)cnc3n2)c1)N1CCCC1 (stereo not shown) [Example 45, N-(4-fluoro-3-(3-((tetrahydrofuran-2-yl)methyl)imidazo[1,2-a]pyrimidin-7-yl)phenyl)pyrrolidine-1-carboxamide]	–	0.126 to 10
CN1CCOCC1c1cnc2nc(-c3cc(NC(=O)N4CCCC4)ccc3F)ccn12 (stereo not shown) [Example 43, N-(4-fluoro-3-(3-(4-methylmorpholin-3-yl)imidazo[1,2-a]pyrimidin-7-yl)phenyl)pyrrolidine-1-carboxamide]	0.251 to 10	0.126 to 10
CC(C)(C)OC(=O)N1CCN(c2cnc3nc(-c4cc(NC(=O)N5CCCC5)ccc4F)ccn23)CC1 [Example 35, tert-butyl 4-(7-(2-fluoro-5-(pyrrolidine-1-carboxamido)phenyl)imidazo[1,2-a]pyrimidin-3-yl)piperazine-1-carboxylate]	0.251 to 10	0.126 to 10
O=C(Nc1cc(-c2ccn3c(N4CCOCC4)cnc3n2)c(F)cc1F)N1CCCC1 [Example 46, N-(2,4-difluoro-5-(3-morpholinoimidazo[1,2-a]pyrimidin-7-yl)phenyl)pyrrolidine-1-carboxamide]	> 50.1	0.126 to 10
O=C(Nc1ccc(F)c(-c2ccn3c(N4CCOCC4)cnc3n2)c1)N1CCC(F)(F)C1 [Example 25, 3,3-difluoro-N-(4-fluoro-3-(3-morpholinoimidazo[1,2-a]pyrimidin-7-yl)phenyl)pyrrolidine-1-carboxamide]	12.6 to 20	0.126 to 10
CC(=O)N1CCN(c2cnc3nc(-c4cc(NC(=O)N5CCCC5)ccc4F)ccn23)CC1 [Example 48, N-(3-(3-(4-acetylpiperazin-1-yl)imidazo[1,2-a]pyrimidin-7-yl)-4-fluorophenyl)pyrrolidine-1-carboxamide]	> 50.1	0.126 to 10
Cc1cn2c(N3CCOCC3)cnc2nc1-c1cc(NC(=O)N2CCCC2)ccc1F [Example 15, N-(4-fluoro-3-(6-methyl-3-morpholinoimidazo[1,2-a]pyrimidin-7-yl)phenyl)pyrrolidine-1-carboxamide]	12.6 to 20	12.6 to 39.8
COC1CCN(c2cnc3nc(-c4cc(NC(=O)N5CCCC5)ccc4F)ccn23)CC1 [Example 47, N-(4-fluoro-3-(3-(4-methoxypiperidin-1-yl)imidazo[1,2-a]pyrimidin-7-yl)phenyl)pyrrolidine-1-carboxamide]	0.251 to 10	0.126 to 10
O=C(Nc1cccc(-c2cnn3c(N4CCOCC4)cnc3n2)c1)N1CCCC1 [Example 9, N-(3-(7-morpholinoimidazo[1,2-b][1,2,4]triazin-3-yl)phenyl)pyrrolidine-1-carboxamide]	0.251 to 10	–
O=C(Nc1ccc(F)c(-c2ccn3c(N4CCOCC4)cnc3n2)c1)N1CC[C@@H](F)C1 [Example 23, 3-fluoro-N-(4-fluoro-3-(3-morpholinoimidazo[1,2-a]pyrimidin-7-yl)phenyl)pyrrolidine-1-carboxamide]	–	0.126 to 10
O=C(Nc1ccc(F)c(-c2ccn3c(N4CCOCC4)cnc3n2)c1)N1CCC1 [Example 51, N-(4-fluoro-3-(3-morpholinoimidazo[1,2-a]pyrimidin-7-yl)phenyl)azetidine-1-carboxamide]	–	0.126 to 10
O=C(Nc1ccc(F)c(-c2cnn3c(N4CCOCC4)cnc3n2)c1)N1CCCC1 [Example 8, N-(4-fluoro-3-(7-morpholinoimidazo[1,2-b][1,2,4]triazin-3-yl)phenyl)pyrrolidine-1-carboxamide]	0.251 to 10	–
O=C(Nc1ccc(F)c(-c2cnn3c(Br)cnc3n2)c1)N1CCCC1 [Example 6, N-(3-(7-bromoimidazo[1,2-b][1,2,4]triazin-3-yl)-4-fluorophenyl)pyrrolidine-1-carboxamide]	0.251 to 10	–

Now from value to compound, other results behind:

EC50 [2] [µM]	Compound	EC50 [1] [µM]
> 50.1	O=C1CN(c2cnc3nc(-c4cc(NC(=O)N5CCCC5)ccc4F)ccn23)CCN1 [Example 52, N-(4-fluoro-3-(3-(3-oxopiperazin-1-yl)imidazo[1,2-a]pyrimidin-7-yl)phenyl)pyrrolidine-1-carboxamide]	–
12.6 to 20	O=C(Nc1ccc(F)c(-c2cnn3ccnc3n2)c1)N1CCCC1 [Example 11, N-(4-fluoro-3-(imidazo[1,2-b][1,2,4]triazin-3-yl)phenyl)pyrrolidine-1-carboxamide]	–
> 50.1	CC1(C)CCCN1C(=O)Nc1ccc(F)c(-c2ccn3c(N4CCOCC4)cnc3n2)c1 [N-(4-fluoro-3-(3-morpholinoimidazo[1,2-a]pyrimidin-7-yl)phenyl)-2,2-dimethylpyrrolidine-1-carboxamide]	–
> 50.1	Cc1cc(F)c(-c2ccn3c(N4CCOCC4)cnc3n2)cc1NC(=O)N1CCCC1 [N-(4-fluoro-2-methyl-5-(3-morpholinoimidazo[1,2-a]pyrimidin-7-yl)phenyl)pyrrolidine-1-carboxamide]	–
> 50.1	N#Cc1ccc(NC(=O)N2CCCC2)cc1-c1ccn2c(N3CCOCC3)cnc2n1 [N-(4-cyano-3-(3-morpholinoimidazo[1,2-a]pyrimidin-7-yl)phenyl)pyrrolidine-1-carboxamide]	–
> 50.1	CC1(C)CCN(C(=O)Nc2ccc(F)c(-c3ccn4c(N5CCOCC5)cnc4n3)c2)C1 [N-(4-fluoro-3-(3-morpholinoimidazo[1,2-a]pyrimidin-7-yl)phenyl)-3,3-dimethylpyrrolidine-1-carboxamide]	–
0.251 to 10	C[C@H]1CCN(C(=O)Nc2ccc(F)c(-c3ccn4c(N5CCOCC5)cnc4n3)c2)C1 [Example 34a]	–
> 50.1	CC1(C)CN(C(=O)Nc2ccc(F)c(-c3ccn4c(N5CCOCC5)cnc4n3)c2)C1 [N-(4-fluoro-3-(3-morpholinoimidazo[1,2-a]pyrimidin-7-yl)phenyl)-3,3-dimethylazetidine-1-carboxamide]	–
0.251 to 10	O=C(Nc1cccc(-c2cnn3c(-c4ccccc4)cnc3n2)c1)N1CCCC1 [Example 10, N-(3-(7-phenylimidazo[1,2-b][1,2,4]triazin-3-yl)phenyl)pyrrolidine-1-carboxamide]	–
12.6 to 20	O=C(Nc1ccc(F)c(-c2ccn3c(C4COCCN4)cnc3n2)c1)N1CCCC1 (stereo not shown) [Example 38, N-(4-fluoro-3-(3-(morpholin-3-yl)imidazo[1,2-a]pyrimidin-7-yl)phenyl)pyrrolidine-1-carboxamide]	–
